Tests used:
[1] = system: subcutaneous adipose layer of skin explants; assay: Lipogenesis: triglyceride synthesis from C-14 acetate in subcutaneous fat of skin explants (HPTLC); type: cell-based, human; conditions: 20 μM in medium, untreated control 100%
Protocol: (§1) To examine the metabolic activity of the subcutaneous adipose layer, explant cultures were established as described in Example 1, using optimized media with 5% serum. After overnight incubation, skin explants remained untreated or were treated with 20 μM of rosiglitazone or with 50 μM of conjugated linoleic acid in the media, for the evaluation of their effect on lipogenesis and lipolysis of subcutaneous adipose layer. Explants were incubated at 37° C. in a 5% CO2 atmosphere.
For assessing lipogenesis, skin explants were cultured in medium containing 20 μM of rosiglitazone and C-14 labeled acetate for 24 hours. Subcutaneous fat was then harvested, and the levels of triglyceride were determined by HPTLC as described in (Pappas et al., JID 118 (1) 164-171, 2002).

human skin explants [2] = assay: LUNA staining of elastin fibers in skin explants; type: cell-based; conditions: 20 ng/ml in Medium 1, 37° C., grade 1-5, 5 = best fiber quality
Protocol: (§2) Skin explant cultures were established as described in Example 1, using Medium 1. Explants were incubated at 37° C. in a 5% CO2 atmosphere. Skin explants either remained untreated or were treated, in Medium 1, with TGF-β, an agent known to increase elastin production. Media were refreshed daily. After predetermined time periods, the skin explants were harvested, and processed for histological, immunohistochemical, and gene expression evaluation as follows. • 1. LUNA staining was used to document elastin fibers histologically, as described in Kligman, Am. J. of Dermatopathology, 3(2): 199-201, 1981. The grading of elastin fiber quality ranged from 1-5, when 5 represented best fiber quality. • 2. Ki67 was used as a marker for cell proliferation, using immunohistochemistry techniques with a rabbit monoclonal antibody for Ki67, purchased from Thermo Scientific (Pittsburgh, Pa.). Immunohistochemistry staining was performed according to manufacturer's instructions. The grading of Ki67 ranged from 1-5, when 5 represented normal Ki67 level in the skin sample prior to culture. • 3. Levels of elastin gene expression (mRNA levels) were evaluated by QPCR. Total RNA was extracted from skin explants using Trizol (Invitrogen, Carlsbad Calif.) according to manufacturer's instructions. […]

human skin explants [3] = assay: Ki67 immunohistochemistry (cell proliferation marker) in skin explants; type: cell-based; conditions: 20 ng/ml in Medium 1, 37° C., grade 1-5, 5 = normal level prior to culture
Protocol: as §2

elastin gene expression = assay: Elastin gene expression (mRNA) by QPCR in skin explants; type: cell-based, human; conditions: 20 ng/ml
Protocol: as §2

[4] = system: subcutaneous adipose layer of skin explants; assay: Lipolysis: glycerol released into culture media of skin explants; type: cell-based, human; conditions: 50 μM in medium, untreated control 100%
Protocol: as §1
For evaluating lipolysis, skin explants were cultured in medium containing 50 μM of conjugated linoleic acid, and culture media were collected at indicated time points. The levels of glycerol released into the media were determined using the free glycerol reagent and kit (Sigma), which was used according to manufacture instruction.

## CN(CCOc1ccc(CC2SC(=O)NC2=O)cc1)c1ccccn1 (centres unmarked) [Rosiglitazone, rosiglitazone]
[1]
  Triglyceride synthesis at 24 hr (lipogenesis): 240-270%

## TGF-β
Human skin explants [2]; Day 5
  LUNA staining Elastin fibers (grade): 3
Human skin explants [2]; Day 7
  LUNA staining Elastin fibers (grade): 4
Human skin explants [3]; Day 5
  Ki67 Proliferation marker (grade): 4
Human skin explants [3]; Day 7
  Ki67 Proliferation marker (grade): 4
Elastin gene expression; Day 5, untreated control normalized to 100%
  Elastin mRNA (QPCR): 369%
Elastin gene expression; Day 7, untreated control Day 5 = 100% (Day 7 control 243%)
  Elastin mRNA (QPCR): 423%

## conjugated linoleic acid
[4]
  Glyceral release at day 3 (lipolysis): 140%

Source: US20110045477A1, “HUMAN SKIN EXPLANT CULTURE SYSTEM AND USE THEREFOR” (priority 2009, published 2011)
